Assay results published in publication PMC10847306, “The antibacterial activity and mechanism of a novel peptide MR-22 against multidrug-resistant Escherichia coli” (Frontiers in Cellular and Infection Microbiology, 2024).
Values after ≈ are worked out from the molar mass of the structure shown.

How the values were obtained:
Assay in all cases: microbe, parasite or virus in culture
[1] = system: E. coli clinical strain E10; conditions: for MIC: Escherichia coli, 18 h; for susceptibility category (S/I/R) given with the MIC: strain E10
Description: (§1) The clinical strains used in this study were obtained from a tertiary healthcare facility located in Guiyang, a city situated within the Guizhou Province of China. The E. coli ATCC 25922 was obtained from the Key and Characteristic Laboratory of Modern Pathogen Biology at Guizhou Medical University in Guiyang, China. All strains were stored at –80°C in LB medium and routinely cultured at LB medium at 37°C.
(§2) The MIC were determined by a micro dilution method in Mueller-Hinton broth (MHB) ([Cuenca-Estrella et al., 2010]). The final concentration of bacterial suspension in MHB were 1.0×10^6 CFU/mL. The final concentration of MR-22 ranged 1 ~ 256 μg/mL in 96 wells plate broth at 37°C for 16~18 h. Imipenem was employed as positive control, bacterial grown without treatment as negative control and MHB as blank control. MIC determination was performed by reading the OD600 nm. Take 100 μL samples in holes that have never seen bacterial growth and place them on the LB agar board. The concentration of MR-22 with no bacterial growth was defined as the MBC.

[2] = system: E. coli clinical strain E05; conditions: for MIC: Escherichia coli, 18 h; for susceptibility category (S/I/R) given with the MIC: strain E05
Description: as §1, §2

[3] = system: E. coli clinical strain E17; conditions: for MIC: Escherichia coli, 18 h; for susceptibility category (S/I/R) given with the MIC: strain E17
Description: as §1, §2

[4] = system: E. coli clinical strain E12; conditions: for MIC: Escherichia coli, 18 h; for susceptibility category (S/I/R) given with the MIC: strain E12
Description: as §1, §2

[5] = system: E. coli clinical strain E03; conditions: for MIC: Escherichia coli, 18 h; for susceptibility category (S/I/R) given with the MIC: strain E03
Description: as §1, §2

[6] = system: E. coli clinical strain E01; conditions: for MIC: Escherichia coli, 18 h; for susceptibility category (S/I/R) given with the MIC: strain E01
Description: as §1, §2

[7] = system: E. coli clinical strain E16; conditions: for MIC: Escherichia coli, 18 h; for susceptibility category (S/I/R) given with the MIC: strain E16
Description: as §1, §2

[8] = system: E. coli clinical strain E18; conditions: for MIC: Escherichia coli, 18 h; for susceptibility category (S/I/R) given with the MIC: strain E18
Description: as §1, §2

[9] = system: E. coli clinical strain E04; conditions: for MIC: Escherichia coli, 18 h; for susceptibility category (S/I/R) given with the MIC: strain E04
Description: as §1, §2

[10] = system: E. coli clinical strain E06; conditions: for MIC: Escherichia coli, 18 h; for susceptibility category (S/I/R) given with the MIC: strain E06
Description: as §1, §2

[11] = system: E. coli clinical strain E22; conditions: for MIC: Escherichia coli, 18 h; for susceptibility category (S/I/R) given with the MIC: strain E22
Description: as §1, §2

[12] = system: E. coli clinical strain E11; conditions: for MIC: Escherichia coli, 18 h; for susceptibility category (S/I/R) given with the MIC: strain E11
Description: as §1, §2

[13] = system: E. coli clinical strain E14; conditions: for MIC: Escherichia coli, 18 h; for susceptibility category (S/I/R) given with the MIC: strain E14
Description: as §1, §2

[14] = system: E. coli clinical strain E13; conditions: for MIC: Escherichia coli, 18 h; for susceptibility category (S/I/R) given with the MIC: strain E13
Description: as §1, §2

[15] = system: E. coli clinical strain E02; conditions: for MIC: Escherichia coli, 18 h; for susceptibility category (S/I/R) given with the MIC: strain E02
Description: as §1, §2

[16] = system: E. coli clinical strain E09; conditions: for MIC: Escherichia coli, 18 h; for susceptibility category (S/I/R) given with the MIC: strain E09
Description: as §1, §2

[17] = system: E. coli clinical strain E20; conditions: for MIC: Escherichia coli, 18 h; for susceptibility category (S/I/R) given with the MIC: strain E20
Description: as §1, §2

[18] = system: E. coli clinical strain E21; conditions: for MIC: Escherichia coli, 18 h; for susceptibility category (S/I/R) given with the MIC: strain E21
Description: as §1, §2

[19] = system: E. coli clinical strain E19; conditions: for MIC: Escherichia coli, 18 h; for susceptibility category (S/I/R) given with the MIC: strain E19
Description: as §1, §2

[20] = system: E. coli clinical strain E07; conditions: for MIC: Escherichia coli, 18 h; for susceptibility category (S/I/R) given with the MIC: strain E07
Description: as §1, §2

[21] = system: E. coli clinical strain E08; conditions: for MIC: Escherichia coli, 18 h; for susceptibility category (S/I/R) given with the MIC: strain E08
Description: as §1, §2

[22] = system: E. coli clinical strain E15; conditions: for MIC: Escherichia coli, 18 h; for susceptibility category (S/I/R) given with the MIC: strain E15
Description: as §1, §2

E. coli ATCC 25922 = conditions: for susceptibility category (S/I/R) given with the MIC: E. coli ATCC 25922; for MIC: Escherichia coli, ATCC25922, 18 h
Description: as §2

For `CO/N=C(\C(=O)N[C@@H]1C(=O)N2C(C(=O)[O-])=C(C[N+]3(C)CCCC3)CS[C@H]12)c1csc(N)n1` [FEP, cefepime], the MIC [1] was 16 µg/mL (≈ 33.3 µM), the “susceptibility category (S/I/R) given with the MIC” value (from here on “susceptibility category”) [1] was “R” and the MIC [2] was over 16 µg/mL. The “susceptibility category” value [2] was “R”, the MIC [3] was at most 2 µg/mL and the “susceptibility category” value [3] was “S”. For the same molecule, the MIC [4] was 4 µg/mL (≈ 8.32 µM), the “susceptibility category” value [4] was “I” and the MIC [5] was 16 µg/mL (≈ 33.3 µM). For the same molecule, the “susceptibility category” value [5] was “R”, the MIC [6] was at most 2 µg/mL and the “susceptibility category” value [6] was “S”. For the same molecule, the MIC [7] was at most 2 µg/mL, the “susceptibility category” value [7] was “S” and the MIC [8] was 16 µg/mL (≈ 33.3 µM). For the same molecule, the “susceptibility category” value [8] was “R”, the MIC [9] was over 16 µg/mL and the “susceptibility category” value [9] was “R”. For the same molecule, the MIC [10] was over 16 µg/mL, the “susceptibility category” value [10] was “R” and the MIC [11] was at least 32 µg/mL. For the same molecule, the “susceptibility category” value [11] was “R”, the MIC [12] was over 16 µg/mL and the “susceptibility category” value [12] was “R”. For the same molecule, the MIC [13] was 16 µg/mL (≈ 33.3 µM), the “susceptibility category” value [13] was “R” and the MIC [14] was at most 2 µg/mL. For the same molecule, the “susceptibility category” value [14] was “S”, the MIC [15] was over 16 µg/mL and the “susceptibility category” value [15] was “R”. The MIC [16] was at most 2 µg/mL, the “susceptibility category” value [16] was “S” and the MIC [17] was 16 µg/mL (≈ 33.3 µM). For the same molecule, the “susceptibility category” value [17] was “R”, the MIC [18] was 16 µg/mL (≈ 33.3 µM) and the “susceptibility category” value [18] was “R”. The MIC [19] was 16 µg/mL (≈ 33.3 µM), the “susceptibility category” value [19] was “R” and the MIC [20] was over 16 µg/mL. For the same molecule, the “susceptibility category” value [20] was “R”, the MIC [21] was at most 2 µg/mL and the “susceptibility category” value [21] was “S”. The MIC [22] was at most 2 µg/mL, the “susceptibility category” value [22] was “S” and the “susceptibility category” value (E. coli ATCC 25922) was “S”. It also gave an MIC (E. coli ATCC 25922) of at most 2 µg/mL.
With `C[C@H]1COc2c(N3CCN(C)CC3)c(F)cc3c(=O)c(C(=O)O)cn1c23` [LEV, levofloxacin] the MIC [1] was at most 0.5 µg/mL, the “susceptibility category” value [1] was “S” and the MIC [2] was at most 0.5 µg/mL. For the same molecule, the “susceptibility category” value [2] was “S”, the MIC [3] was over 8 µg/mL and the “susceptibility category” value [3] was “R”. The MIC [4] was over 8 µg/mL, the “susceptibility category” value [4] was “R” and the MIC [5] was 8 µg/mL (≈ 22.1 µM). For the same molecule, the “susceptibility category” value [5] was “R”, the MIC [6] was at most 0.5 µg/mL and the “susceptibility category” value [6] was “S”. For the same molecule, the MIC [7] was 1 µg/mL (≈ 2.77 µM), the “susceptibility category” value [7] was “I” and the MIC [8] was over 8 µg/mL. For the same molecule, the “susceptibility category” value [8] was “R”, the MIC [9] was over 8 µg/mL and the “susceptibility category” value [9] was “R”. For the same molecule, the MIC [10] was 8 µg/mL (≈ 22.1 µM), the “susceptibility category” value [10] was “R” and the MIC [11] was over 8 µg/mL. The “susceptibility category” value [11] was “R”, the MIC [12] was at most 0.5 µg/mL and the “susceptibility category” value [12] was “S”. For the same molecule, the MIC [13] was over 8 µg/mL, the “susceptibility category” value [13] was “R” and the MIC [14] was at most 0.5 µg/mL. For the same molecule, the “susceptibility category” value [14] was “S”, the MIC [15] was at most 0.5 µg/mL and the “susceptibility category” value [15] was “S”. The MIC [16] was 8 µg/mL (≈ 22.1 µM), the “susceptibility category” value [16] was “R” and the MIC [17] was over 8 µg/mL. The “susceptibility category” value [17] was “R”, the MIC [18] was at most 0.5 µg/mL and the “susceptibility category” value [18] was “S”. For the same molecule, the MIC [19] was over 8 µg/mL, the “susceptibility category” value [19] was “R” and the MIC [20] was at most 0.5 µg/mL. The “susceptibility category” value [20] was “S”, the MIC [21] was at most 0.5 µg/mL and the “susceptibility category” value [21] was “S”. The MIC [22] was 0.5 µg/mL (≈ 1.38 µM), the “susceptibility category” value [22] was “S” and the “susceptibility category” value (E. coli ATCC 25922) was “S”. For the same molecule, the MIC (E. coli ATCC 25922) was at most 0.5 µg/mL.
With `CN(C)[C@@H]1C(O)=C(C(N)=O)C(=O)[C@@]2(O)C(O)=C3C(=O)c4c(O)cccc4[C@@](C)(O)[C@H]3C[C@@H]12` [TET, tetracycline] the MIC [1] was at most 0.5 µg/mL, the “susceptibility category” value [1] was “S” and the MIC [2] was over 8 µg/mL. For the same molecule, the “susceptibility category” value [2] was “R”, the MIC [3] was at most 0.5 µg/mL and the “susceptibility category” value [3] was “S”. The MIC [4] was over 8 µg/mL, the “susceptibility category” value [4] was “R” and the MIC [5] was over 8 µg/mL. The “susceptibility category” value [5] was “R”, the MIC [6] was at most 0.5 µg/mL and the “susceptibility category” value [6] was “S”. The MIC [7] was at most 0.5 µg/mL, the “susceptibility category” value [7] was “S” and the MIC [8] was at most 0.5 µg/mL. The “susceptibility category” value [8] was “S”, the MIC [9] was over 8 µg/mL and the “susceptibility category” value [9] was “R”. The MIC [10] was over 8 µg/mL, the “susceptibility category” value [10] was “R” and the MIC [11] was at most 0.5 µg/mL. For the same molecule, the “susceptibility category” value [11] was “S”, the MIC [12] was over 8 µg/mL and the “susceptibility category” value [12] was “R”. The MIC [13] was over 8 µg/mL, the “susceptibility category” value [13] was “R” and the MIC [14] was at most 0.5 µg/mL. The “susceptibility category” value [14] was “S”, the MIC [15] was over 8 µg/mL and the “susceptibility category” value [15] was “R”. The MIC [16] was over 8 µg/mL, the “susceptibility category” value [16] was “R” and the MIC [17] was at most 0.5 µg/mL. For the same molecule, the “susceptibility category” value [17] was “S”, the MIC [18] was at most 0.5 µg/mL and the “susceptibility category” value [18] was “S”. For the same molecule, the MIC [19] was at most 0.5 µg/mL, the “susceptibility category” value [19] was “S” and the MIC [20] was over 8 µg/mL. The “susceptibility category” value [20] was “R”, the MIC [21] was over 8 µg/mL and the “susceptibility category” value [21] was “R”. The MIC [22] was at most 0.5 µg/mL, the “susceptibility category” value [22] was “S” and the “susceptibility category” value (E. coli ATCC 25922) was “S”. It also gave an MIC (E. coli ATCC 25922) of at most 0.5 µg/mL.
